Assay results from US20080293777A1, “Weight Loss Treatment” (priority 2007, published 2008).
Structures can show the parent of a compound that is named as a salt.

Experiments:
[1] = cited from earlier work
[2] = biological target: T1, PTP-1B (wild type, residues 1-298) (Homo sapiens, UniProt P18031); assay: Mass spectrometry of PTP-1B treated with Compound 1; assay type: binding; conditions: 1 equivalent of Compound 1 for 15 minutes, FIG. 2
T1 construct: PTP-1B (wild type, residues 1-298) was exchanged into DFTN buffer
T1 sequence (P18031 1-298): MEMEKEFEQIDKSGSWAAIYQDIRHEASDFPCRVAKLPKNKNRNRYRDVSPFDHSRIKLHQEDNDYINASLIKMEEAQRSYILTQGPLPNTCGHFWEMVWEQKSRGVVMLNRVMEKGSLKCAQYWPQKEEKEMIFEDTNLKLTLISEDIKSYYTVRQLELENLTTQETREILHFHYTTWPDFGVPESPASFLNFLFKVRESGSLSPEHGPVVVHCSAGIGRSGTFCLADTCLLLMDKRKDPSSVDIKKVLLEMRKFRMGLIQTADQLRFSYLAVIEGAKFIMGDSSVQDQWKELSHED
Description: (§1) PTP-1B (wild type, residues 1-298) was exchanged into DFTN buffer (DTT-free, 50 mM Tris, 100 mM NaCl, 1 mM EDTA, pH 7.4) using a NAP-5 column, and the concentration of protein was quantified using the absorbance at 280 nm. Purity of the PTP-1B was evidenced by a single mass peak (mass=34,672 amu in a mass spectrometer).
(§2) To 99 mL solution of 1.0 μM PTP-1B in buffer was added 1 mL of Compound 1 in DMSO […]. After 15 minutes, each Compound 1-treated PTP-1B sample was evaluated by mass spectrometry (QSTAR protein mass spectrometer with Baynesian protein mass deconvolution). Concurrently, two 10 μL aliquots were removed. One aliquot was diluted with 10 μL DFTN buffer while the other aliquot was diluted with 10 μL TN buffer (1 mM DTT, 50 mM Tris, 100 mM NaCl, 1 mM EDTA, pH 7.4). After 15 minutes, the samples were diluted with 90 μL pNPP solution (5.6 mM pNPP in DFTN) and the A405 of the solution was monitored for 5 minutes.

[3] = biological target: T1, PTP-1B (wild type, residues 1-298); assay: PTP-1B activity assay with pNPP, with or without DTT added afterwards; assay type: biochemical; conditions: FIG. 1
Description: as §1, §2

[4] = Weight change in leptin-deficient (ob/ob) mice; assay type: in vivo; conditions: for weight change: PO BID for 7 days, FIG. 3
Description: To investigate Compound 1's effect on various metabolic disorders including diabetes and obesity, in vivo studies were conducted in the ob/ob obese mouse model and in the db/db diabetic model. The ob/ob mouse is deficient in the hormone leptin, a 16 kDa protein that is secreted by fat cells and plays a key role in regulating energy intake and energy expenditure, including the regulation of appetite and metabolism. […] Compound 1 was tested in these metabolic disease models along with two anti-diabetic drugs that also affect body weight, metformin hydrochloride and rosiglitazone maleate.
Male BKS.Cg-m+/+Leprdb/J (˜5 weeks of age) and B6.V-Lepob/J mice (˜8 weeks of age) were used for in vivo efficacy studies. Mice were housed 4 per cage and acclimated for 10 days prior to the start of the study. […] Mice were weighed each morning just prior to dosing. Mice were fasted overnight between study day 1 and 2 and blood glucose was measured in the morning of day 2 using a glucometer and blood from a tail nick. Food was returned to the mice ad libitum and the mice were again fasted overnight between study day 3 and 4, 5 and 6, and 7 and 8.

[5] = Weight change in db/db mice (mutation mapped to leptin receptor); assay type: in vivo; conditions: FIG. 4
Description: To investigate Compound 1's effect on various metabolic disorders including diabetes and obesity, in vivo studies were conducted in the ob/ob obese mouse model and in the db/db diabetic model. The ob/ob mouse is deficient in the hormone leptin, a 16 kDa protein that is secreted by fat cells and plays a key role in regulating energy intake and energy expenditure, including the regulation of appetite and metabolism. Leptin-deficient mice are severely obese and develop diabetes but revert to normal weight upon leptin administration. In the second model, the mice have a genetic mutation mapped to the leptin receptor (db/db) and at the time of the experiment were moderately overweight. Compound 1 was tested in these metabolic disease models along with two anti-diabetic drugs that also affect body weight, metformin hydrochloride and rosiglitazone maleate.
Male BKS.Cg-m+/+Leprdb/J (˜5 weeks of age) and B6.V-Lepob/J mice (˜8 weeks of age) were used for in vivo efficacy studies. Mice were housed 4 per cage and acclimated for 10 days prior to the start of the study. […] Mice were fasted overnight between study day 1 and 2 and blood glucose was measured in the morning of day 2 using a glucometer and blood from a tail nick. […]

covalent modification of PTP-1B (mass spectrum) [2]	relative activity of PTP-1B ([3]; 0-2 equivalents of Compound 1, 15 minutes)	reversibility of covalent inhibition of PTP-1B ([3]; upon addition of a reducing agent such as DTT)	SMILES	cell permeability ([1]; data from clinical trials)	bioavailability of the selenium moiety ([1]; human, in vivo)	oral bioavailability ([1]; humans, clinical trials)	tolerability ([1]; humans, clinical trials)	toxicity ([1]; up to 500 mg/day oral dose in humans)	difference in weight loss between doses ([4]; 20 mg/kg vs 100 mg/kg Compound 1 dosed orally BID)	weight change [4]	statistical significance of weight gains [5]
covalently modifies	inhibits the activity	reversible	O=c1c2ccccc2[se]n1-c1ccccc1 [Compound 1, 2-phenyl-1,2-benzisoselenazol-3(2H)-one]	cell-permeable	not bioavailable	orally bioavailable	well tolerated	no toxicity was observed	No significant difference in weight loss	promoted weight loss	–
–	–	–	CN(C)C(=N)N=C(N)N [metformin, metformin hydrochloride, reference compound]	–	–	–	–	–	–	promoted weight loss	–
–	–	–	CN(CCOc1ccc(CC2SC(=O)NC2=O)cc1)c1ccccn1.O=C(O)/C=C\C(=O)O (stereo not shown) [rosiglitazone, rosiglitazone maleate, reference compound]	–	–	–	–	–	–	gained weight	except for the rosiglitazone-treated mice, the weight gains were not statistically significant
